Several values for one entry are separate records, joined by “and”; a condition that tells them apart may be missing. Identical values can stand only once. Like-named read-outs stand apart in the source and are kept apart here.
Key:
GluA2-stargazin = conditions: previously reported; cited from earlier work
[1] = molecular target: GluA2flip(R)-CNIH3 (A2R-C3 TetON HEK293 cells) (Homo sapiens, UniProt P42262, Q607R); experiment: VSD assay (counter-screen, CRC) on A2R-C3 cells; conditions: for CMPDmaxmin: max-min 8-100 s; for CMPDmaxmin / CMPDSlope: compound only; for Glumaxmin: max-min normalized value 301-380 s; for Glumaxmin / GluSlope: compound+glutamate; for BaselineReturn: max 250-255 s minus min 0-5 s; for GluSlope: slope of normalized value 310-315 s; for CMPDSlope: slope 11-18 s
Description: Cell lines used in the VSD assays were TetON HEK293 cells. This was the parental cell line for all stable cell lines created. We used GluA2flip(R) TetON HEK cell clone #4 that doxycycline (DOX) dependently expresses GluA2flip(R) (A2R). The A2R cells were used as the base cell line to derive cell lines that co-express auxiliary subunits.
(§1) Greiner 384-pp round-bottom plates containing glutamate for the second add were dispensed by hand using a multi-channel pipet at 5X final concentration. A2R-stg cells were plated in 384-well BD PureCoat amine-coated plates (Corning Life Sciences) at 16k cells/well in DMEM medium supplemented with 10% heat-inactivated FBS and 100U/mL PenStrep antibiotic. […] Cells were incubated overnight (O/N) and washed 4 times in HBSS containing 20 mM HEPES, pH 7.4, on an ELX405CW liquid aspirator and dispenser (BioTek). Buffer was left in the wells and an equal amount of 2X FLIPR dye solution was added and incubated on the cells at room temperature for 45 min. Fluorescence signal was collected at 1 Hz using Ex. 480±20 nm/Em. 540±40 nm on a Hamamatsu Functional Drug Screening System 6000 (FDSS). Baseline signal was collected for 10 seconds followed by addition of 10 μl of 5X compound for a final concentration of 10 μM.
This assay was carried out in the same way as the VSD screening assay except a 10-point concentration curve, from 40 μM to 10 nM, was plated in triplicate for each compound on a single 384-well plate. Data were summarized by plotting them as %max GLUslope against log [compound] that was fit to a four-parameter logistical model. %max GLUslope is defined as a normalized GLUslope expressed as a percentage of the mean maximum GLUslope, defined as 100, where background mean vehicle control (VHLslope) were subtracted from both values on a per plate basis. Thus, %max GLU slope = (GLUslope-mean VHLslope/mean maxGLUslope-mean VHLslope).

[2] = molecular target: GluA2flip(R)-stargazin (A2R-stg TetON HEK293 cells) (Homo sapiens, UniProt P42262, Q607R); experiment: Voltage-sensitive dye (VSD) assay (primary screen, counter-screen, CRC) on A2R-stg cells; conditions: for BaselineReturn: max 250-255 s minus min 0-5 s; for CMPDmaxmin: max-min 8-100 s; for CMPDmaxmin / CMPDSlope: only compound present; for Glumaxmin: max-min normalized value 301-380 s; for Glumaxmin / GluSlope: compound and glutamate present; for GluSlope: slope 310-315 s; for CMPDSlope: slope 11-18 s
Protocol: Cell lines used in the VSD assays were TetON HEK293 cells. […] We used GluA2flip(R) TetON HEK cell clone #4 that doxycycline (DOX) dependently expresses GluA2flip(R) (A2R). The A2R cells were used as the base cell line to derive cell lines that co-express auxiliary subunits.
as §1
Hits were selected from this initial screen using 4 different criteria, which we termed CMPDslope, CMPDmaxmin, GLUslope, and GLUmaxmin. […] GLUslope is the fitted slope of the increase in fluorescence within 10 sec after adding glutamate. GLUmaxmin is the difference in the minimum and maximum value in fluorescence signal reached in the 100 sec window after adding glutamate. Compounds were classified as hits if they differed by 3 standard deviations of the mean for each criterion. Tier 1 hits were classified as those that hit in the GLUslope, GLUmaxmin, and CMPDmaxmin windows. Tier 2 hits were classified as compounds that hit in the GLUslope window and either the GLUmaxmin or CMPDmaxmin window. Tier 3 hits were classified as those that hit in only the GLUslope or the GLUmaxmin window. Tier 4 hits were classified as compounds that hit only in the CMPD window, CMPDslope or CMPDmaxmin. Hit selection was further narrowed using the criterion that their signal must return to near baseline values before entering the glutamate add window.
VSD concentration response curves (CRCs): After the above counter-screens, compounds that remained positive were moved forward to collect complete CRCs for A2R-stg and A2R-C3 cell lines. This assay was carried out in the same way as the VSD screening assay except a 10-point concentration curve, from 40 μM to 10 nM, was plated in triplicate for each compound on a single 384-well plate. Data were summarized by plotting them as %max GLUslope against log [compound] that was fit to a four-parameter logistical model. %max GLUslope is defined as a normalized GLUslope expressed as a percentage of the mean maximum GLUslope, defined as 100, where background mean vehicle control (VHLslope) were subtracted from both values on a per plate basis. Thus, %max GLU slope = (GLUslope-mean VHLslope/mean maxGLUslope-mean VHLslope).

[3] = 3.90625e-6 M, per well, plate 58169DST7
[4] = 7.8125e-6 M, per well, plate 58169DST7
[5] = 1.5625e-5 M, per well, plate 58169DST7
[6] = 3.125e-5 M, per well, plate 58169DST7
[7] = 6.25e-5 M, per well, plate 58169DST7

Chain of GluA2flip(R)-stargazin (A2R-stg TetON HEK293 cells) (P42262 25-883 isoform P42262-2 Q607R limits assumed): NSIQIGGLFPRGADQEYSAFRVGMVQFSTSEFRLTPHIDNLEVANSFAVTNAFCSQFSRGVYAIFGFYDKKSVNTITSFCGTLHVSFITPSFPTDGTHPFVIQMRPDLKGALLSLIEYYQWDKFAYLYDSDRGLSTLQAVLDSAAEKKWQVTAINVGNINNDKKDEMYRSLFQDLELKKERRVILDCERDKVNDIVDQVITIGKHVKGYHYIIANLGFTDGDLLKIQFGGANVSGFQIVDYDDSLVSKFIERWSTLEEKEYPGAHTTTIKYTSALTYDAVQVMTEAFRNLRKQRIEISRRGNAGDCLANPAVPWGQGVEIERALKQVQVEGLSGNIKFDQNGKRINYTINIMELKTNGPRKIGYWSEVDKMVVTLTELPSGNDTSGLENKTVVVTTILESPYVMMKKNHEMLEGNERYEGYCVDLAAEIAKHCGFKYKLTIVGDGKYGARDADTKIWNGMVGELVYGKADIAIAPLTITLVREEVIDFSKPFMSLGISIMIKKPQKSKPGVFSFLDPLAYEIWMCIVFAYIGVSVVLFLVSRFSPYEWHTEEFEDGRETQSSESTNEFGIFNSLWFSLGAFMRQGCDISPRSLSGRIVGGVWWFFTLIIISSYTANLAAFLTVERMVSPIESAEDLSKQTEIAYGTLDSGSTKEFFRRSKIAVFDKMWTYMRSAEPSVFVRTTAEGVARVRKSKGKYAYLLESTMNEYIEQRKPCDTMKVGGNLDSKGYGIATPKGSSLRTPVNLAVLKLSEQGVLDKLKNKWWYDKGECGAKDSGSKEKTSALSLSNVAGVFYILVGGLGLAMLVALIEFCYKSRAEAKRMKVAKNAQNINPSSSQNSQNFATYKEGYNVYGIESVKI
Chain of GluA2flip(R)-stargazin (A2R-stg TetON HEK293 cells) (Q9Y698 whole entry partner): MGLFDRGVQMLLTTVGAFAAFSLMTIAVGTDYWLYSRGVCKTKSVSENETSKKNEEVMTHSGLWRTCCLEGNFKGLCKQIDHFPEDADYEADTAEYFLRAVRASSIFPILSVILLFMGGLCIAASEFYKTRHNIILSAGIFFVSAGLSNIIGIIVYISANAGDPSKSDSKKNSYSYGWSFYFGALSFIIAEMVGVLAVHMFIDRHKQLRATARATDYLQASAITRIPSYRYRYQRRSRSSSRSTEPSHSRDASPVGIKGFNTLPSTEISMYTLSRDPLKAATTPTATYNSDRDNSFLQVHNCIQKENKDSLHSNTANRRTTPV
Chain of GluA2flip(R)-CNIH3 (A2R-C3 TetON HEK293 cells) (P42262 25-883 isoform P42262-2 Q607R limits assumed): as the sequence (P42262 25-883 isoform P42262-2 Q607R limits assumed) above
Chain of GluA2flip(R)-CNIH3 (A2R-C3 TetON HEK293 cells) (Q8TBE1 whole entry partner): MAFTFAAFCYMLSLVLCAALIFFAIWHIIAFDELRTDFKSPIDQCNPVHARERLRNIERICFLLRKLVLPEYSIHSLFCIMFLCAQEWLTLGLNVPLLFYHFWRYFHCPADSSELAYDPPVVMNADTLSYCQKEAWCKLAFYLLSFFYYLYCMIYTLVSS

Glumaxmin ([1]; 0.0005 M ligand, per well): 0.1143 and 0.1458 and 0.1743
activity at 250 µM ([1]; HEK293, read-out: AVE %MAXCMPDslope, 0.00025 M ligand, average over wells): 20.2%
activity at 1000 µM ([1]; HEK293, read-out: AVE %MAXCMPDslope, 0.001 M ligand, average over wells): 29.1%
activity at […] ([1]; HEK293, read-out: AVE %MAXCMPDslope, […] ligand, average over wells): 18.9%
activity at 250 µM ([1]; HEK293, read-out: AVE %MAXslope, 0.00025 M ligand, average over wells): 33.8%
activity at 500 µM ([1]; HEK293, read-out: AVE %MAXslope, 0.0005 M ligand, average over wells): 40.3%
activity at 1000 µM ([1]; HEK293, read-out: AVE %MAXslope, 0.001 M ligand, average over wells): 54.1%
activity at […] ([1]; HEK293, read-out: AVE %MAXslope, […] ligand, average over wells): 25.6%
activity at 250 µM ([1]; HEK293, read-out: pctMAXslope, 0.00025 M ligand, GluSlope as percentage MAX, per well): 30.3%
activity at 500 µM ([1]; HEK293, read-out: pctMAXslope, 0.0005 M ligand, GluSlope as percentage MAX, per well): 37%
activity at […] ([1]; HEK293, read-out: pctMAXslope, […] ligand, GluSlope as percentage MAX, per well): 21%
activity at 250 µM ([1]; HEK293, read-out: pctMAXslopeCMPD, 0.00025 M ligand, CMPDSlope as percentage MAX of GluSlope controls, per well): 19.4%
activity at 500 µM ([1]; HEK293, read-out: pctMAXslopeCMPD, 0.0005 M ligand, CMPDSlope as percentage MAX of GluSlope controls, per well): 22.3%
activity at 1000 µM ([1]; HEK293, read-out: pctMAXslopeCMPD, 0.001 M ligand, CMPDSlope as percentage MAX of GluSlope controls, per well): 30%
activity at […] ([1]; HEK293, read-out: pctMAXslopeCMPD, […] ligand, CMPDSlope as percentage MAX of GluSlope controls, per well): 18.5%
EC50 [2]: 59.4 µM
BaselineReturn (maximal normalized value 250-255 s minus minimal 0-5 s) [2, 7]: 0.01812 and 0.0231 and 0.02286
CMPDmaxmin (maximal - minimal normalized value, 8-100 s, only compound present) [2, 7]: 0.02793 and 0.02317 and 0.02528
pctMAXslope (GluSlope as percentage MAX) [2, 7]: 40.7941% and 49.9185% and 35.6482%
pctMAXslopeCMPD (CMPDSlope as percentage MAX) [2, 7]: 27.4558% and 28.8276% and 28.6616%
BaselineReturn ([2]; 6.25e-5 M): 0.01973 and 0.018 and 0.01152
CMPDmaxmin ([2]; 6.25e-5 M): 0.02536 and 0.01826 and 0.01839
Glumaxmin ([2]; 6.25e-5 M): 0.2031 and 0.2196 and 0.1717
GluSlope ([2]; 6.25e-5 M): 6.2051e-6 and 9.036e-6 and 7.987e-6
activity at 250 µM ([2]; HEK293, read-out: AVE %MAXCMPDslope, 0.00025 M, average of wells): 30.3%
activity at 500 µM ([2]; HEK293, read-out: AVE %MAXCMPDslope, 0.0005 M, average of wells): 34.5%
activity at 1000 µM ([2]; HEK293, read-out: AVE %MAXCMPDslope, 0.001 M, average of wells): 42.6%
activity at […] ([2]; HEK293, read-out: AVE %MAXCMPDslope, […], average of wells): 29.5%
activity at 250 µM ([2]; HEK293, read-out: AVE %MAXslope, 0.00025 M, average of wells): 53.6%
activity at 500 µM ([2]; HEK293, read-out: AVE %MAXslope, 0.0005 M, average of wells): 57.1%
activity at 1000 µM ([2]; HEK293, read-out: AVE %MAXslope, 0.001 M, average of wells): 54.1%
activity at […] ([2]; HEK293, read-out: AVE %MAXslope, […], average of wells): 47%
activity at 250 µM ([2]; HEK293, read-out: pctMAX, 0.00025 M, Glumaxmin as percentage MAX (vhl and glutamate controls)): 30.3%
activity at 500 µM ([2]; HEK293, read-out: pctMAX, 0.0005 M, Glumaxmin as percentage MAX (vhl and glutamate controls)): 42.2%
activity at 1000 µM ([2]; HEK293, read-out: pctMAX, 0.001 M, Glumaxmin as percentage MAX (vhl and glutamate controls)): 48.3%
activity at 250 µM ([2]; HEK293, read-out: pctMAXslope, 0.00025 M, GluSlope as percentage MAX): 53.6%
activity at 500 µM ([2]; HEK293, read-out: pctMAXslope, 0.0005 M, GluSlope as percentage MAX): 58.2%
activity at 1000 µM ([2]; HEK293, read-out: pctMAXslope, 0.001 M, GluSlope as percentage MAX): 54.2%
activity at […] ([2]; HEK293, read-out: pctMAXslope, […], GluSlope as percentage MAX): 49.2%
activity at 250 µM ([2]; HEK293, read-out: pctMAXslopeCMPD, 0.00025 M, CMPDSlope as percentage MAX): 31.5%
activity at 500 µM ([2]; HEK293, read-out: pctMAXslopeCMPD, 0.0005 M, CMPDSlope as percentage MAX): 33.5%
activity at 1000 µM ([2]; HEK293, read-out: pctMAXslopeCMPD, 0.001 M, CMPDSlope as percentage MAX): 43%
activity at […] ([2]; HEK293, read-out: pctMAXslopeCMPD, […], CMPDSlope as percentage MAX): 28.5%
concentrations giving a slight increase in fluorescence in the absence of glutamate ([2]; compound-only window): > 250 µM
SMILES: O=C(c1ccc2c(c1)OCCO2)N1CCCCC1 [CX-546, 1-(1,4-benzodioxan-6-ylcarbonyl)piperidine]
EC50 (GluA2-stargazin): 563 µM
CMPDmaxmin ([1]; 3.90625e-6 M ligand, per well): 0.02275 and 0.02429 and 0.01798 and 0.02168
CMPDmaxmin ([1]; 7.8125e-6 M ligand, per well): 0.02523 and 0.02353 and 0.02165 and 0.01735
Glumaxmin ([1]; 7.8125e-6 M ligand, per well): 0.04101 and 0.05338 and 0.04284 and 0.03307 and 0.0299 and 0.0291
CMPDmaxmin ([1]; 6.25e-5 M ligand, per well): 0.02083 and 0.02655 and 0.02189 and 0.02084 and 0.01632
Glumaxmin ([1]; 6.25e-5 M ligand, per well): 0.04091 and 0.0333 and 0.02423 and 0.04193 and 0.044 and 0.03344
BaselineReturn ([1]; 0.00025 M ligand, per well): 0.0251 and 0.02832 and 0.03028 and 0.03411 and 0.02776 and 0.02771
CMPDmaxmin ([1]; 0.00025 M ligand, per well): 0.02518 and 0.02777 and 0.02573 and 0.03151 and 0.03447 and 0.02604
Glumaxmin ([1]; 0.00025 M ligand, per well): 0.07039 and 0.07337 and 0.08523 and 0.112 and 0.08025
GluSlope ([1]; 0.00025 M ligand, per well): 6.934e-6 and 8.592e-6 and 7.437e-6 and 1.202e-5 and 1.111e-5 and 6.283e-6
BaselineReturn ([1]; 0.0005 M ligand, per well): 0.05295 and 0.05148 and 0.05075 and 0.04719 and 0.05673 and 0.04937
CMPDmaxmin ([1]; 0.0005 M ligand, per well): 0.05637 and 0.05305 and 0.05109 and 0.05302 and 0.05564 and 0.06158
CMPDSlope ([1]; 0.0005 M ligand, per well): 2.7882e-6 and 3.22e-6 and 3.04e-6 and 3.857e-6 and 3.969e-6 and 3.136e-6
GluSlope ([1]; 0.0005 M ligand, per well): 1.038e-5 and 1.007e-5 and 1.121e-5 and 1.228e-5 and 1.22e-5 and 1.66e-5
BaselineReturn ([1]; 0.001 M ligand, per well): 0.1285 and 0.1243 and 0.1327 (2×) and 0.1383 and 0.1333
CMPDmaxmin ([1]; 0.001 M ligand, per well): 0.1223 and 0.1248 and 0.1314 and 0.1303 and 0.1374 and 0.1301
CMPDSlope ([1]; 0.001 M ligand, per well): 6.79e-6 and 6.675e-6 and 5.635e-6 and 5.488e-6 and 6.247e-6 and 7.073e-6
CMPDmaxmin (maximal - minimal normalized value, 8-100 s, only compound present) [2, 3]: 0.02005 and 0.02265 and 0.02255 and 0.0215 and 0.02263
pctMAX (Glumaxmin as percentage MAX) [2, 3]: -20.3423% and -18.5877% and -17.4231% and -25.653% and -23.4431%
pctMAXslope (GluSlope as percentage MAX) [2, 3]: 19.0119% and 16.1163% and 16.1435% and 23.5293% and 24.5477% and 19.9769%
pctMAXslopeCMPD (CMPDSlope as percentage MAX) [2, 3]: 26.8078% and 27.859% and 27.6784% and 25.3948% and 25.8066% and 27.049%
CMPDmaxmin (maximal - minimal normalized value, 8-100 s, only compound present) [2, 4]: 0.02204 and 0.02518 and 0.02221 and 0.01901
pctMAXslope (GluSlope as percentage MAX) [2, 4]: 18.0524% and 15.893% and 18.8435% and 18.5798% and 25.5404% and 27.1839%
pctMAXslopeCMPD (CMPDSlope as percentage MAX) [2, 4]: 27.7492% and 27.8022% and 28.8582% and 27.2592% and 26.4835% and 26.0048%
CMPDmaxmin (maximal - minimal normalized value, 8-100 s, only compound present) [2, 5]: 0.02181 and 0.01695 and 0.02869 and 0.01943 and 0.02297
pctMAXslopeCMPD (CMPDSlope as percentage MAX) [2, 5]: 28.6064% and 25.6086% and 27.9557% and 25.483% and 25.9044% and 26.6639%
pctMAX (Glumaxmin as percentage MAX) [2, 6]: -24.1315% and -27.3641% and -24.1538% and -25.136% and -22.907% and -18.6431%
pctMAXslope (GluSlope as percentage MAX) [2, 6]: 27.6745% and 23.6277% and 22.7715% and 21.1161% and 24.5423% and 29.8099%
pctMAXslopeCMPD (CMPDSlope as percentage MAX) [2, 6]: 26.044% and 27.2438% and 26.2272% and 24.5792% and 27.7844% and 28.3201%
BaselineReturn ([2]; 0.00025 M): 0.05169 and 0.04966 and 0.04304 and 0.05412 and 0.05858 and 0.04633
CMPDmaxmin ([2]; 0.00025 M): 0.05366 and 0.04763 and 0.04669 and 0.05717 and 0.05497 and 0.04716
Glumaxmin ([2]; 0.00025 M): 0.3546 and 0.3256 and 0.3581 and 0.3601 and 0.3987 and 0.3619
CMPDSlope ([2]; 0.00025 M): 2.511e-6 and 1.582e-6 and 1.531e-6 and 1.914e-6 and 1.992e-6 and 1.6067e-6
GluSlope ([2]; 0.00025 M): 1.516e-5 and 1.442e-5 and 1.434e-5 and 1.326e-5 and 1.8177e-5 and 1.566e-5
BaselineReturn ([2]; 0.0005 M): 0.1016 and 0.09236 and 0.09814 and 0.1005 and 0.08945 and 0.09494
CMPDmaxmin ([2]; 0.0005 M): 0.09292 and 0.08599 and 0.08883 and 0.08871 and 0.09266 and 0.08518
Glumaxmin ([2]; 0.0005 M): 0.4227 and 0.415 and 0.4148 and 0.4609 and 0.4831 and 0.4327
CMPDSlope ([2]; 0.0005 M): 3.674e-6 and 4.188e-6 and 3.738e-6 and 3.852e-6 and 5.683e-6 and 4.257e-6
GluSlope ([2]; 0.0005 M): 1.777e-5 and 1.508e-5 and 1.548e-5 and 1.731e-5 and 1.8778e-5 and 1.858e-5
BaselineReturn ([2]; 0.001 M): 0.1819 and 0.178 and 0.2248 and 0.2011 and 0.1897 and 0.1856
CMPDmaxmin ([2]; 0.001 M): 0.1715 and 0.1673 and 0.213 and 0.1892 and 0.174 and 0.1789
Glumaxmin ([2]; 0.001 M): 0.4573 and 0.4826 and 0.4107 and 0.4115 and 0.4861 and 0.4796
CMPDSlope ([2]; 0.001 M): 9.085e-6 and 8.904e-6 and 9.403e-6 and 8.729e-6 and 8.585e-6 and 8.384e-6
GluSlope ([2]; 0.001 M): 1.548e-5 and 1.672e-5 (2×) and 1.1033e-5 and 1.693e-5 and 1.578e-5

From PMC5373622, “Screening for AMPA receptor auxiliary subunit specific modulators” (PLoS ONE, 2017)
